Measured values from patent US8629100B2, “Method of inhibiting clostridium difficile by administration of oritavancin” (The Medicines Company, priority 2007, dated 2014).
In brackets after ≈: the same amount, converted by molar mass.

Columns and labels:
Type in all cases: cell-based
[1] = test system: genotypically distinct C. difficile (n = 33); experiment: Broth macrodilution MIC; details: Clostridioides difficile, BM, broth macrodilution
[2] = test system: C. difficile spores (PCR ribotypes 001, 106 and 027); experiment: Viability (recovery) of spores after antibiotic exposure, cellulose acetate filtration (Examples 3A, 3B)
Procedure: The experiments were in general performed by mixing C. difficile spores with an antibiotic, filtering the solution through cellulose acetate filters to collect the spores, applying the spore-containing filters to nutrient agar, and determining the number of spores remaining on the filters after a selected period of time.
Therefore, the initial experiment included dilution of antimicrobial-containing spore suspensions prior to filtration and washing. Reaction volumes were 1 mL for all antimicrobial/control solutions.
1 mL of control (de-ionised water+/−Tween-80) and test (antimicrobial containing) solutions were inoculated with 10 μL C. difficile spores (3 strains; PCR ribotypes 001, 106 and 027). Spore suspensions (time=1 min or 30 min) were transferred to filtration cupules and the appropriate volume of diluent (sterile de-ionised water+/−Tween-80) was added to achieve the dilution factors noted above. Samples were filtered onto cellulose acetate filters and washed with a further 50 mL of the appropriate diluent. Filters were transferred aseptically to Braziers CCEY agar containing 5 mg/L lysozyme and 2% lysed horse blood. This procedure was completed in duplicate. The culture media were incubated in an anaerobic atmosphere at 37° C. for 48 h and the numbers of C. difficile colonies were recorded.
Diluent was first added to filtration cupules. 1 mL reactions were then added to the appropriate diluent (1 min and 30 min after reaction formation) and filtered onto cellulose acetate filters. The filters were washed with 50 mL of the appropriate diluent. The filters were then transferred aseptically to Braziers CCEY agar containing 5 mg/L lysozyme and 2% lysed horse blood. This procedure was completed in duplicate. Culture media were incubated in an anaerobic atmosphere at 37° C. for 48 h and the numbers of C. difficile colonies recorded

[3] = test system: genotypically distinct C. difficile (n = 33); experiment: Agar incorporation MIC; details: for MIC90 / MIC range / MIC: AI; for MIC: read-out: GEO MIC
Text: Thirty-three genotypically distinct (by PCR ribotyping) C. difficile isolates were selected from a library of strains at the Leeds General Infirmary (Leeds, UK). Representative isolates of epidemic C. difficile PCR ribotypes 001, 106 and 027 were included in the panel. Control isolates of Staphylococcus aureus ATCC 29213, Enterococcus faecalis ATCC 29212 and Bacteroides fragilis ATCC 25285 were included in all MIC determinations to ensure procedure accuracy.
Agar incorporation MICs were determined based on the method of Freeman and Wilcox (J Antimicrob Chemother 2001; 47: 244-6). Briefly, bacteria were cultured in Schaedler's anaerobic broth (Oxoid, Basingstoke, UK) at 37° C. for 24 h in an anaerobic cabinet (Don Whitley Scientific, Shipley). […] Oritavancin was prepared in 0.002% P80. All antimicrobial solutions were sterilized by filtration through 0.22 um syringe filters. […] Wilkins Chalgren agar (Oxoid) incorporating doubling dilutions of antimicrobial agents (0.03-16 mg/L) was prepared with and without 0.002% P80 and with and without 2% lysed horse blood (E&O Labs, Bonneybridge, UK). All media and diluents were pre-reduced overnight in the anaerobic cabinet. Bacterial cultures were diluted in sterile saline and inoculated onto the surface of agar incorporation agar plates using a multipoint inoculator (˜10^4 cfu). Agar incorporation plates were incubated anaerobically for 48 h. MIC endpoints were read as the lowest concentration of antimicrobial agent where there is no apparent growth (disregarding a visible haze of growth or a single colony).

[4] = test system: C. difficile PCR ribotype 027 spores; experiment: Phase-contrast microscopy of spore germination/outgrowth; details: 10 mg/L for 2 h, washed 3x in PBS
Procedure: C. difficile spores were also exposed to 10 mg/L antimicrobial for 2 h, washed 3× in sterile PBS, re-suspended and inoculated into Brazier's broth medium (pH 7). Samples were removed at 2, 4, 6, 24, 32 and 48 h. Slides were viewed under phase-contrast microscopy and percentages of phase-bright spores, phase-dark spores and vegetative cells were recorded (FIG. 4).
Statistical analyses were performed by transforming percentage data using an Arcsin Transformation and analysed using a Wilcoxon signed rank test. P<0.05 was considered statistically significant. Supra-MIC concentrations of all antimicrobials prevented outgrowth but not germination of C. difficile spores.

[5] = test system: C. difficile vegetative cultures and spores; experiment: Spiral gradient endpoint analysis MIC; details: data not shown
Procedure: C. difficile PCR ribotypes 001, 106 and 027 were inoculated onto Columbia blood agar and incubated anaerobically (37° C.) for 10 d. Growth was harvested into sterile saline and alcohol shocked in an equal volume of 100% ethanol for 1 h. Alcohol-shocked spore suspensions were mixed by vortexing and sonicated for 5 minutes at room temperature. C. difficile phase-bright (non-germinated) spores were separated from phase-dark (germinated) spores and cellular debris by density gradient centrifugation (4000 rpm 15 minutes) following layering onto 50% (v/v in phosphate buffered saline) Urografin 370 (Schering, Germany). The density gradient centrifugation step was performed twice. Pellets of purified spores were re-suspended in sterile saline (1 mL per 10 Columbia blood agar plates harvested). Percentage phase-bright spores, phase-dark spores and vegetative cells were recorded using phase-contrast microscopy (×100 magnification).
A spiral plater (WASP2, Don Whitley Scientific, UK) was used to apply a logarithmic antibiotic gradient onto the surface of pre-dried (37° C. 20 minutes) Brazier's agar (pH 7). Agar with logarithmic antimicrobial gradients applied to their surface remained at room temperature for 1 h to allow the antimicrobial agent to adsorb into the agar. C. difficile vegetative cultures and spores (˜10^7 cfu/mL) were inoculated onto the agar surface (FIG. 1) with a sterile cotton swab and incubated anaerobically (37° C., 24 h). D-values were measured (in mm) and converted to MICs (Paton, J. H.1990. Int J Exp Clin Chemother. 9, 31-38).

- MIC90 [1]: 2 µg/mL (≈ 11.7 µM)
- MIC ([1]; read-out: GEO MIC): 0.56 µg/mL (≈ 3.27 µM)
- MIC90 ([3]; P80 no LHB): 2 µg/mL (≈ 11.7 µM)
- MIC range ([3]; P80 no LHB): 0.25 to 2 µg/mL
- MIC90 ([3]; no P80 no LHB): 2 µg/mL (≈ 11.7 µM)
- MIC range ([3]; no P80 no LHB): 0.25 to 4 µg/mL
- MIC90 ([3]; no P80 with LHB): 2 µg/mL (≈ 11.7 µM)
- MIC range ([3]; no P80 with LHB): 0.5 to 4 µg/mL
- MIC ([3]; Clostridioides difficile, P80 no LHB): 0.55 µg/mL (≈ 3.21 µM)
- MIC ([3]; Clostridioides difficile, P80 with LHB): 0.55 µg/mL (≈ 3.21 µM)
- MIC90 ([3]; Clostridioides difficile, P80 with LHB, read-out: MIC90): 2 µg/mL (≈ 11.7 µM)
- MIC ([3]; Clostridioides difficile, no P80 no LHB): 0.53 µg/mL (≈ 3.1 µM)
- MIC ([3]; Clostridioides difficile, no P80 with LHB): 0.69 µg/mL (≈ 4.03 µM)
- Agar incorporation geometric mean MICs lower than oritavancin MICs ([3]; all agar conditions): 2- to 5 fold
- Agar incorporation geometric mean MICs lower than vancomycin MICs ([3]; all agar conditions): 2- to 3 fold
- MICs for C. difficile vegetative cells versus spores [5]: did not differ substantially
Compound: Cc1ncc([N+](=O)[O-])n1CCO [metronidazole]
- Recovery of C. difficile spores ([2]; Example 3A: diluent added after reaction solutions, 1 min and 30 min exposure): 90-110 % of controls
- Recovery of C. difficile spores ([2]; Example 3B: diluent added to cupules before reaction solutions, 1 min and 30 min): 95-110 % of controls
- Outgrowth of C. difficile spores prior-exposed to antimicrobial [4]: not observed
